Values quoted from earlier work, collected in patent publication US20100086592A1, “MODIFIED DOSAGE FORMS OF TACROLIMUS” (PANACEA BIOTEC LIMITED., priority 2007, published 2010).
Like-named read-outs stand apart in the source and are kept apart here.

Settings: oral

- absolute bioavailability (adult heart transplantation patients (N=11)): 23±9%
- absolute bioavailability (adult liver transplant patients (N=17)): 22±6%
- absolute bioavailability (healthy volunteers (N=16)): 18±5%
Compound: C=CC[C@@H]1/C=C(\C)C[C@H](C)C[C@H](OC)[C@H]2O[C@@](O)(C(=O)C(=O)N3CCCC[C@H]3C(=O)O[C@H](/C(C)=C/[C@@H]3CC[C@@H](O)[C@H](OC)C3)[C@H](C)[C@@H](O)CC1=O)[C@H](C)C[C@@H]2OC [tacrolimus, Tacrolimus]
